Data: BindingDB's records for doi:10.1021/jm990250u (Hoechst Marion Roussel, 1999)

Target: Stromelysin-1 (Homo sapiens, UniProt P08254)
Assay: Inhibitory concentration against human matrix metalloprotease-3 (MMP-3)

Sequence of Stromelysin-1 (P08254 whole entry): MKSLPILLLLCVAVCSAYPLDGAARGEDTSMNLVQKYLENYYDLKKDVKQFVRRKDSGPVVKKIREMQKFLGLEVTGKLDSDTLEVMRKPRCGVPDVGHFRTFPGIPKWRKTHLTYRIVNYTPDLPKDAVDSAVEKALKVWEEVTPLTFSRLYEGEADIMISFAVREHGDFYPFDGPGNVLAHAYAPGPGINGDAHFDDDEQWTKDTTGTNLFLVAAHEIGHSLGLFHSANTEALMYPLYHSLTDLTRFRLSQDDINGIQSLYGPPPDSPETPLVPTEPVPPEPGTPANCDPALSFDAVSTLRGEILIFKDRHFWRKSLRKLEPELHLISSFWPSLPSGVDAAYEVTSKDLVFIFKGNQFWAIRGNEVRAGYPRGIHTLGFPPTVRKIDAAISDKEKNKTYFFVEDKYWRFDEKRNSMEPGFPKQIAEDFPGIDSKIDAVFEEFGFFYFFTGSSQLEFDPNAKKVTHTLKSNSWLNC

SMILES	IC50 [µM]
O=C(NO)C1Cc2ccccc2CN1S(=O)(=O)Cc1ccccc1 (configuration not stated) [2-Phenylmethanesulfonyl-1,2,3,4-tetrahydro-isoquinoline-3-carboxylic acid hydroxyamide]	10
O=C(Nc1cccc(S(=O)(=O)N2Cc3ccccc3CC2C(=O)NO)c1)c1ccccc1O (configuration not stated) [2-[3-(2-Hydroxy-benzoylamino)-benzenesulfonyl]-1,2,3,4-tetrahydro-isoquinoline-3-carboxylic acid hydroxyamide]	10
COc1ccc(S(=O)(=O)N2Cc3ncn(C)c3C[C@@H]2C(=O)O)cc1 [(R)-5-(4-Methoxy-benzenesulfonyl)-1-methyl-4,5,6,7-tetrahydro-1H-imidazo[4,5-c]pyridine-6-carboxylic acid]	10

More lines, in order of falling IC50, values ahead:

IC50 [µM]	SMILES
10	CSc1nccc(-c2ccc(S(=O)(=O)N3Cc4ccccc4CC3C(=O)O)s2)n1 (configuration not stated)
10	O=C(NO)C1Cc2ccccc2CN1S(=O)(=O)c1cc(Br)c(Br)s1 (configuration not stated) [2-(4,5-Dibromo-thiophene-2-sulfonyl)-1,2,3,4-tetrahydro-isoquinoline-3-carboxylic acid hydroxyamide]
10	O=C(NO)C1Cc2ccccc2CN1S(=O)(=O)c1cc(S(=O)(=O)c2ccccc2)cs1 (configuration not stated) [2-(4-Benzenesulfonyl-thiophene-2-sulfonyl)-1,2,3,4-tetrahydro-isoquinoline-3-carboxylic acid hydroxyamide]
10	CCCCCCCCCCCCCCCCS(=O)(=O)N1Cc2ccccc2CC1C(=O)NO (configuration not stated) [2-(Hexadecane-1-sulfonyl)-1,2,3,4-tetrahydro-isoquinoline-3-carboxylic acid hydroxyamide]
